Experimental findings from patent US4839346A, “Antitumor anthracycline glycosides, intermediates thereof, and composition and use thereof” (priority 1986, dated 1989) are described below.

For one data set, the system named is HeLa cells. The experiment in a line: Cytotoxic activity in vitro, colony inhibition test after 24 hours exposure. The data set is classed as cell-based. The following applies: Homo sapiens. The procedure:
(§1) Compound IB has been tested in comparison with daunorubicin (DNR) against HeLa and P388 cells in vitro (Table 1).
(§2) Cytotoxic activity of IB in comparison
^+ COLONY INHIBITION TEST AFTER 24 HOURS EXPOSURE TO THE DRUGS.

For data set [1], the system named is disseminated Gross leukemia. The experiment in a line: In vivo effect against disseminated Gross leukemia in C3H mice. The following applies: for TOXIC DEATHS: evaluated on the basis of autopsy findings; for T/C %: median survival time treated/controls × 100. The procedure: (§3) EFFECT AGAINST GROSS LEUKEMIA^(A)
(§4) ^(A) EXPERIMENTS WERE PERFORMED IN C3H MICE, INOCULATED WITH 2 .times
(§5) 10^6 LEUKEMIA CELLS I.V.
(§6) ^(B) TREATMENT I.V. ON DAY 1 AFTER TUMOR INOCULUM.
(§7) ^(C) MEDIAN SURVIVAL TIME OF TREATED MICE/MEDIAN SURVIVAL TIME OF
(§8) ^(D) EVALUATED ON THE BASIS OF AUTOPSY FINDINGS.

Assay in data set [2]: as above
Particulars: mouse, in vivo; iv, mice with disseminated Gross leukemia; read-out: maxima tolerated dose (MxTD). Here is the method: as §3, §4, §5, §6, §7, §8

The test system of another data set is P388 cells. Description: Cytotoxic activity in vitro, cell counting after 48 hours exposure. Type of data set: cell-based. Particulars: Mus musculus. The procedure:
as §1, §2
^++ CYTOTOXICITY EVALUATED AFTER 48 HOURS EXPOSURE TO THE DRUGS BY
CELL COUNTING TECHNIQUE.

Structures are written as SMILES. In brackets after ≈: the same amount, converted by molar mass. Where two headings read alike, the source gives them in different places.

Take `COc1cccc2c1C(=O)c1c(O)c3c(c(O)c1C2=O)C[C@@](O)(C(=O)CO)C[C@@H]3O[C@H]1C[C@@H](CN)[C@@H](O)[C@H](C)O1` [IB, 3'-desamino-3'-aminomethyl-3',4'-epi-doxorubicin]: the IC50 was 6.4 ng/mL (≈ 0.0115 µM) with HeLa cells (colony inhibition test after 24 hours exposure, read-out: ID50 (the source's name)) and 10 ng/mL (≈ 0.0179 µM) with P388 cells (P388, cell counting after 48 hours exposure, read-out: ID50 (the source's name)). The “TOXIC DEATHS” value in data set [1] (19 mg/kg i.v. on day 1) was 0/10; in data set [1] (24.7 mg/kg i.v. on day 1) it was 0/10; in data set [1] (32.11 mg/kg i.v. on day 1), 1/10. Also, the T/C % came to 167% in data set [1] (19 mg/kg i.v. on day 1 after tumor inoculum), 183% in data set [1] (24.7 mg/kg i.v. on day 1 after tumor inoculum) and 200% in data set [1] (32.11 mg/kg i.v. on day 1 after tumor inoculum). Besides, the “potency in vivo compared with DNR” value in data set [1] (administered iv) is on record as “less potent than DNR”. Further, in data set [1] (iv, at the maxima tolerated dose (32.11 mg/Kg; DNR MxTD=15 mg/Kg)), the “activity in vivo compared with DNR” value is “more active than DNR”. In addition, the MTD in data set [2] turned out to be 32.1 mg/kg.

As to `COc1cccc2c1C(=O)c1c(O)c3c(c(O)c1C2=O)C[C@@](O)(C(C)=O)C[C@@H]3O[C@H]1C[C@H](N)[C@H](O)[C@H](C)O1` [DNR, daunorubicin, reference compound], the IC50 was found to be 10.5 ng/mL (≈ 0.0199 µM) with HeLa cells (24 h, read-out: ID50) and 8.4 ng/mL (≈ 0.0159 µM) in the data set on P388 cells (P388, 48 h, read-out: ID50). Moreover, the results for the “TOXIC DEATHS” value in data set [1] (10 mg/kg i.v. on day 1), in data set [1] (15 mg/kg i.v. on day 1) and in data set [1] (22.5 mg/kg i.v. on day 1) were 0/10, 0/10 and 2/10, respectively. The T/C % came to 150% in data set [1] (10 mg/kg i.v. on day 1 after tumor inoculum), 183% in data set [1] (15 mg/kg i.v. on day 1 after tumor inoculum) and 217% in data set [1] (22.5 mg/kg i.v. on day 1 after tumor inoculum). In addition, the MTD in data set [2] is 15 mg/kg.
